Data taken from ChEMBL document CHEMBL5150076, “Discovery of Novel Orally Bioavailable Triazoles with Potent and Broad-Spectrum Antifungal Activity In Vitro and In Vivo” (J Med Chem, 2022).
≈ marks a conversion by molar mass, not a printed value. Calls of active or inactive are those of the source. No cut-off for these calls is given here.

Legend:
Pichia kudriavzevii [1] = assay: Antifungal activity against Candida krusei 629; format: functional
Candida albicans [2] = assay: Antifungal activity against Candida albicans 100 infected in ICR mouse assessed as delay in mortality at 0.25 mg/kg, po qd infected with fungus for 2 hrs prior to compound addition for 7 days and measured for 20 days; format: functional, organism-based; conditions: time 20.0 day
Cryptococcus neoformans [3] = assay: Antifungal activity against Cryptococcus neoformans H99 infected in ICR mouse assessed as median survival time at 1 mg/kg, po qd infected with fungus for 2 hrs prior to compound addition for 7 days and measured for 20 days; format: functional; conditions: time 20 day
Candida albicans [4] = assay: Inhibition of biofilm formation in Candida albicans SC5314 at 0.5 ug/ml relative to control; format: functional
Cryptococcus neoformans [5] = assay: Antifungal activity against Cryptococcus neoformans H99 incubated for 72 hrs by microbroth dilution method; format: functional
Candida albicans [6] = assay: Antifungal activity against Candida albicans 12#; format: functional
[7] = Induction of drug resistance in Candida albicans SC5314 assessed as increase in MIC after 2 weeks (reference value: 0.008 microg/ml); format: functional; conditions: SC5314, 336 h
[8] = molecular target: T1, Lanosterol 14-alpha demethylase (Candida albicans (strain SC5314 / ATCC MYA-2876) (Yeast), UniProt P10613); assay: Inhibition of CYP51 in Candida albicans SC5314 assessed as sterol level at 0.0625 ug/ml measured after 12 hrs by GC-MS analysis (reference value: 25.23%); design: scale not given: the % may be the effect or the level left; conditions: dose 0.0625 µg/ml
Cryptococcus neoformans [9] = assay: Antifungal activity against Cryptococcus neoformans H99 infected in ICR mouse assessed as median survival time at 5 mg/kg, po qd infected with fungus for 2 hrs prior to compound addition for 7 days and measured for 20 days; format: functional; conditions: time 20 day
Aspergillus fumigatus [10] = assay: Antifungal activity against Aspergillus fumigatus 7544 infected in ICR mouse assessed as survival rate at 60 mg/kg, po qd infected with fungus for 2 hrs prior to compound addition for 7 days and measured for 20 days; format: functional; conditions: time 20 day
[11] = Half life in Sprague-Dawley rat at 2 mg/kg, iv by LC-MS analysis; format: ADME, organism-based; conditions: in vivo
Nakaseomyces glabratus = assay: Antifungal activity against Candida glabrata 537; format: functional
[Candida] auris [12] = Antifungal activity against Candida auris 887; format: functional; conditions: Candidozyma auris
Candida albicans [13] = assay: Inhibition of biofilm formation in Candida albicans SC5314; format: functional, organism-based; conditions: dose 0.002-0.5 µg/ml, DDE = dose-dependent effect
Candida albicans [14] = assay: Antifungal activity against Candida albicans SC5314 infected in ICR mouse assessed as median survival time at 0.5 mg/kg, po qd infected with fungus for 2 hrs prior to compound addition for 7 days and measured for 20 days; format: functional; conditions: time 20 day
Candida albicans [15] = assay: Inhibition of biofilm formation in Candida albicans SC5314 at 0.0625 ug/ml relative to control; format: functional
[16] = molecular target: T1, Lanosterol 14-alpha demethylase; assay: Inhibition of CYP51 in Candida albicans SC5314 assessed as lanosterol level at 0.0625 ug/ml measured after 12 hrs by GC-MS analysis (reference value: 2.18%); design: scale not given: the % may be the effect or the level left; conditions: dose 0.0625 µg/ml
[17] = Oral bioavailability in Sprague-Dawley rat at 5 mg/kg by LC-MS analysis; format: ADME, organism-based; conditions: in vivo
[18] = Induction of hemolysis in rabbit RBC at 64 ug/ml incubated for 1 hr; format: toxicity, cell-based, Oryctolagus cuniculus, Erythrocyte; conditions: red blood cells, dose 64 µg/ml, read-out: Activity
Candida albicans [19] = assay: Antifungal activity against Candida albicans 162; format: functional
Cryptococcus neoformans [20] = assay: Antifungal activity against Cryptococcus neoformans H99 infected in ICR mouse assessed as delay in mortality at 0.5 to 5 mg/kg, po qd infected with fungus for 2 hrs prior to compound addition for 7 days and measured for 20 days; format: functional, organism-based; conditions: dose 0.5-5 mg/kg, time 20.0 day
[21] = molecular target: T1, Lanosterol 14-alpha demethylase; assay: Inhibition of CYP51 in Candida albicans SC5314 assessed as eburicol level at 0.0625 ug/ml measured after 12 hrs by GC-MS analysis (reference value: 0.00%); design: scale not given: the % may be the effect or the level left; conditions: dose 0.0625 µg/ml
Trichophyton rubrum = assay: Antifungal activity against Trichophyton rubrum cmccftla; format: functional
Aspergillus fumigatus [22] = assay: Antifungal activity against Aspergillus fumigatus 7544 infected in ICR mouse assessed as survival rate at 20 mg/kg, po qd infected with fungus for 2 hrs prior to compound addition for 7 days and measured for 20 days; format: functional; conditions: time 20 day
[Candida] auris [23] = Antifungal activity against Candida auris BS12372; format: functional; conditions: Candidozyma auris
Candida albicans [24] = assay: Antifungal activity against Candida albicans 100 infected in ICR mouse assessed as median survival time at 0.25 mg/kg, po qd infected with fungus for 2 hrs prior to compound addition for 7 days and measured for 20 days; format: functional; conditions: time 20 day
Candida parapsilosis [25] = assay: Antifungal activity against Candida parapsilosis 700; format: functional; conditions: Lodderomyces parapsilosis
Pichia kudriavzevii [26] = assay: Antifungal activity against Candida krusei 463; format: functional
Candida albicans [27] = assay: Antifungal activity against Candida albicans 28#; format: functional
Candida parapsilosis [28] = assay: Antifungal activity against Candida parapsilosis 90018; format: functional; conditions: Lodderomyces parapsilosis
[29] = Tmax in Sprague-Dawley rat at 5 mg/kg, po by LC-MS analysis; format: ADME, organism-based; conditions: in vivo
Candida albicans [30] = assay: Antifungal activity against Candida albicans 20#; format: functional
[Candida] auris [31] = Antifungal activity against Candida auris 791; format: functional; conditions: Candidozyma auris
Candida parapsilosis [32] = assay: Antifungal activity against Candida parapsilosis 660; format: functional; conditions: Lodderomyces parapsilosis
[Candida] auris [33] = Antifungal activity against Candida auris D12; format: functional; conditions: Candidozyma auris
Candida albicans [34] = assay: Antifungal activity against Candida albicans 305; format: functional
[35] = AUC(0 to infinity) in Sprague-Dawley rat at 2 mg/kg, iv by LC-MS analysis; format: ADME, organism-based; design: time infinity, dose 2 mg/kg, route iv; conditions: in vivo
[36] = Clearance in Sprague-Dawley rat at 2 mg/kg, iv by LC-MS analysis; conditions: in vivo
Cryptococcus neoformans [37] = assay: Antifungal activity against Cryptococcus neoformans H99 infected in po dosed ICR mouse assessed as increase in survival infected with fungus for 2 hrs prior to compound addition for 7 days and measured for 20 days; format: functional, organism-based; conditions: dose 0.5-5 mg/kg, time 20.0 day, DDE = dose-dependent effect
Nannizzia gypsea = assay: Antifungal activity against Microsporum gypseum; format: functional
Candida albicans [38] = assay: Inhibition of biofilm formation in Candida albicans SC5314 at 0.002 ug/ml relative to control; format: functional
[39] = molecular target: T1, Lanosterol 14-alpha demethylase; assay: Inhibition of CYP51 in Candida albicans SC5314 assessed as ergosterol level at 0.5 ug/ml measured after 12 hrs by GC-MS analysis (reference value: 72.58%); design: scale not given: the % may be the effect or the level left; conditions: at 0.5 µg/mL
Candida parapsilosis [40] = assay: Antifungal activity against Candida parapsilosis 22019; format: functional; conditions: Lodderomyces parapsilosis
[41] = Cytotoxicity against HUVEC assessed as cell viability at 64 ug/ml incubated for 24 hrs by CCK-8 assay; format: toxicity, cell-based; conditions: human, HUVEC cells, dose 64 µg/ml, read-out: Activity
Cryptococcus neoformans [42] = assay: Antifungal activity against Cryptococcus neoformans 32605; format: functional
Candida albicans [43] = assay: Antifungal activity against Candida albicans SC5314 infected in ICR mouse assessed as median survival time at 0.25 mg/kg, po qd infected with fungus for 2 hrs prior to compound addition for 7 days and measured for 20 days; format: functional; conditions: time 20 day
[44] = Cmax in Sprague-Dawley rat at 5 mg/kg, po by LC-MS analysis; format: ADME, organism-based; design: dose 5 mg/kg, route po; conditions: in vivo
Candida albicans [45] = assay: Antifungal activity against Candida albicans SC5314 infected in ICR mouse assessed as delay in mortality at 0.25 to 0.5 mg/kg, po qd infected with fungus for 2 hrs prior to compound addition for 7 days and measured for 20 days; format: functional, organism-based; conditions: dose 0.25-0.5 mg/kg, time 20.0 day

T1 sequence (P10613 whole entry): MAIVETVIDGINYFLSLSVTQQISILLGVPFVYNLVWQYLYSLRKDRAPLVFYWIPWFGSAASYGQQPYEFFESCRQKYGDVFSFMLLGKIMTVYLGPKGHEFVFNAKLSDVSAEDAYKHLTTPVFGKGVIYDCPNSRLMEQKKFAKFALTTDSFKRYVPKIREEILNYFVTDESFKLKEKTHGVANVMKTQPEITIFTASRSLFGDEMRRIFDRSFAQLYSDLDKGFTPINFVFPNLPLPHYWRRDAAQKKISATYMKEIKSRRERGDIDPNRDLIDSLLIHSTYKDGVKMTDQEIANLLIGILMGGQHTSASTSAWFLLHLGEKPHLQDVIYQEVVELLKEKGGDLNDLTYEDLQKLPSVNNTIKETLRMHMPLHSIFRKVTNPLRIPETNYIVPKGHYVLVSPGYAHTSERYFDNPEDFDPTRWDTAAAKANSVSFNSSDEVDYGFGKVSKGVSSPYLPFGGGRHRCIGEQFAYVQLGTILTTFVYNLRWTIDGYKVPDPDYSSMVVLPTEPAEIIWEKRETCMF

## C[C@@H](c1cn(-c2ccc(Cl)cc2F)nn1)[C@](O)(Cn1cncn1)c1ccc(F)cc1F
Pichia kudriavzevii [1]
  MIC: 0.25 µg/mL (≈ 0.557 µM)
Candida albicans [2]
  Activity: Active
Cryptococcus neoformans [3]
  Time: 14 days
Candida albicans [4]
  inhibition at 0.5 µg/mL: 80%
Cryptococcus neoformans [5]
  MIC: 0.0313 µg/mL (≈ 0.0697 µM)
Candida albicans [6]
  MIC: 16 µg/mL (≈ 35.6 µM)
[7]
  MIC: 0.313 µg/mL
[8]
  Activity: 3.82%
Cryptococcus neoformans [9]
  Time: 18 days
Aspergillus fumigatus [10]
  Activity: 100%
[11]
  half-life: 270 min
Nakaseomyces glabratus
  MIC: 0.0625 µg/mL (≈ 0.139 µM)
[Candida] auris [12]
  MIC: 1 µg/mL (≈ 2.23 µM)
Candida albicans [13]
  inhibition: Dde
Candida albicans [14]
  Time: 17 days
Candida albicans [15]
  inhibition at 0.0625 µg/mL: 75%
[16]
  Activity: 6.46%
[17]
  bioavailability: 34%
[18]
  hemolysis at 1 h, 64 ug/ml: 0.3%
Candida albicans [19]
  MIC: 8 µg/mL (≈ 17.8 µM)
Cryptococcus neoformans [20]
  Activity: Active
[21]
  Activity: 88.96%
Trichophyton rubrum
  MIC: 0.125 µg/mL (≈ 0.278 µM)
Aspergillus fumigatus [22]
  Activity: 30%
[Candida] auris [23]
  MIC: 0.25 µg/mL (≈ 0.557 µM)
Candida albicans [24]
  Time: 14 days
Candida parapsilosis [25]
  MIC: 0.0625 µg/mL (≈ 0.139 µM)
Pichia kudriavzevii [26]
  MIC: 0.125 µg/mL (≈ 0.278 µM)
Candida albicans [27]
  MIC: ≤ 0.0313 µg/mL
Candida parapsilosis [28]
  MIC: ≤ 0.0313 µg/mL
[29]
  Tmax: 2.71 h
Candida albicans [30]
  MIC: ≤ 0.0313 µg/mL
[Candida] auris [31]
  MIC: 1 µg/mL (≈ 2.23 µM)
Candida parapsilosis [32]
  MIC: ≤ 0.0313 µg/mL
[Candida] auris [33]
  MIC: 1 µg/mL (≈ 2.23 µM)
Candida albicans [34]
  MIC: 8 µg/mL (≈ 17.8 µM)
[35]
  AUC(0-inf): 8410 ng·h/mL
[36]
  clearance: 1.99 mL/min/kg
Cryptococcus neoformans [37]
  Activity: Dde
Nannizzia gypsea
  MIC: 1 µg/mL (≈ 2.23 µM)
Candida albicans [38]
  inhibition at 0.002 µg/mL: 20%
[39]
  Activity: 74.56%
Candida parapsilosis [40]
  MIC: 0.0625 µg/mL (≈ 0.139 µM)
[41]
  viability at 24 h, 64 ug/ml: 89.1%
Cryptococcus neoformans [42]
  MIC: 0.0156 µg/mL (≈ 0.0348 µM)
Candida albicans [43]
  Time: 13.5 days
[44]
  Cmax: 837 ng/mL
Candida albicans [45]
  Activity: Active
